For 22 compounds, Emax and DC50 results are on record in US11554171B2, “Compounds and methods for the targeted degradation of bromodomain-containing proteins” (Arvinas Operations, Inc., priority 2015, dated 2023).

Structures are written as SMILES.

This assay concerns c-myc in 22RV-1 cells. Description: Human c-myc ELISA assay. The class given is cell-based. As to conditions: Homo sapiens; for Emax: 22Rv1, 18 h, read-out: Degradation of BRD4: Maximum inhibition (%) c-Myc ELISA in 22RV1 cells; for DC50: 22Rv1, read-out: Degradation of BRD4: DC50 (uM) c-Myc ELISA in 22RV1 cells. The procedure, abridged: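 22RV-1 cells treated 18 h with 8-point 1:3 compound dilutions (final top 300 nM or 1 μM, 0.1% DMSO). Cells lysed in RIPA buffer with protease/phosphatase inhibitors, and c-myc protein in cleared lysate quantified by ELISA against a standard curve. DC50 reported for c-myc suppression.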
In general terms: ELISA stands for enzyme-linked immunosorbent assay.

A word on the DC50: it is the concentration at which degradation of the target reaches its halfway point.

For the compound `Cc1ncsc1-c1ccc(CNC(=O)[C@@H]2C[C@@H](O)CN2C(=O)[C@@H](NC(=O)COCCN2CCC(c3ccc([C@@H](C)NC(=O)C[C@@H]4N=C(c5ccc(Cl)cc5)c5c(sc(C)c5C)-n5c(C)nnc54)cc3)CC2)C(C)(C)C)cc1` [Example 57], the Emax was determined as 94% and the 50% degradation concentration (DC50) is 0.1 to 1 µM.
The like results for `Cc1ncsc1-c1ccc(CNC(=O)[C@@H]2C[C@@H](O)CN2C(=O)[C@@H](NC(=O)COCCN2CCN(c3ccc([C@H](C)NC(=O)C[C@@H]4N=C(c5ccc(Cl)cc5)c5c(sc(C)c5C)-n5c(C)nnc54)cc3)CC2)C(C)(C)C)cc1` [Example 58, (2S,4R)-1-[(2S)-2-{2-[2-(4-{4-[(1S)-1-{2-[(9S)-7-(4-chlorophenyl)-4,5,13-trimethyl-3-thia-1,8,11,12-tetraazatricyclo[8.3.0.0^2,^6]trideca-2(6),4,7,10,12-pentaen-9-yl]acetamido}ethyl]phenyl}piperazin-1-yl)ethoxy]acetamido}-3,3-dimethylbutanoyl]-4-hydroxy-N-{[4-(4-methyl-1,3-thiazol-5-yl)phenyl]methyl}pyrrolidine-2-carboxamide] were, in that order, 88% and 0.1 to 1 µM.
The matching figures for `Cc1ncsc1-c1ccc(CNC(=O)[C@@H]2C[C@@H](O)CN2C(=O)[C@@H](NC(=O)COCCN2CCN(c3ccc([C@@H](C)NC(=O)C[C@@H]4N=C(c5ccc(Cl)cc5)c5c(sc(C)c5C)-n5c(C)nnc54)cc3)CC2)C(C)(C)C)cc1` [Example 59]: 95% and 0.1 to 1 µM.
The matching figures for `Cc1ncsc1-c1ccc(CNC(=O)[C@@H]2C[C@@H](O)CN2C(=O)[C@@H](NC(=O)COCCN2CCN(c3ccc(CNC(=O)C[C@@H]4N=C(c5ccc(Cl)cc5)c5c(sc(C)c5C)-n5c(C)nnc54)cc3)CC2)C(C)(C)C)cc1` [Example 60]: 91% and 0.1 to 1 µM.
In the case of `Cc1ncsc1-c1ccc(CNC(=O)[C@@H]2C[C@@H](O)CN2C(=O)[C@@H](NC(=O)Cc2cccc(OCCCNC(=O)C[C@@H]3N=C(c4ccc(Cl)cc4)c4c(sc(C)c4C)-n4c(C)nnc43)c2)C(C)(C)C)cc1` [Example 61, (2S,4R)-1-[(2S)-2-{2-[3-(3-{2-[(9S)-7-(4-chlorophenyl)-4,5,13-trimethyl-3-thia-1,8,11,12-tetraazatricyclo[8.3.0.0^2,^6]trideca-2(6),4,7,10,12-pentaen-9-yl]acetamido}propoxy)phenyl]acetamido}-3,3-dimethylbutanoyl]-4-hydroxy-N-{[4-(4-methyl-1,3-thiazol-5-yl)phenyl]methyl}pyrrolidine-2-carboxamide], the Emax worked out at 96% and the half-maximal degradation concentration (DC50) fell in the range of 0.01 to 0.1 µM.
The like results for `Cc1ncsc1-c1ccc(CNC(=O)[C@@H]2C[C@@H](O)CN2C(=O)[C@@H](NC(=O)COCCCOCCCOc2ccc(NC(=O)C[C@@H]3N=C(c4ccc(Br)cc4)c4c(sc(C)c4C)-n4c(C)nnc43)cc2)C(C)(C)C)cc1` [Example 62] were, in that order, 98.5% and 0.01 to 0.1 µM.
The like results for `C=Cc1ccc(C2=N[C@@H](CC(=O)Nc3ccc(OCCCOCCCOCC(=O)N[C@H](C(=O)N4C[C@H](O)C[C@H]4C(=O)NCc4ccc(-c5scnc5C)cc4)C(C)(C)C)cc3)c3nnc(C)n3-c3sc(C)c(C)c32)cc1` [Example 63] were, in that order, 98.5% and 0.01 to 0.1 µM.
The matching figures for `CCc1ccc(C2=N[C@@H](CC(=O)Nc3ccc(OCCCOCCCOCC(=O)N[C@H](C(=O)N4C[C@H](O)C[C@H]4C(=O)NCc4ccc(-c5scnc5C)cc4)C(C)(C)C)cc3)c3nnc(C)n3-c3sc(C)c(C)c32)cc1` [Example 64, (2S,4R)-1-[(2S)-2-(2-{3-[3-(4-{2-[(9S)-7-(4-ethylphenyl)-4,5,13-trimethyl-3-thia-1,8,11,12-tetraazatricyclo[8.3.0.0^2,^6]trideca-2(6),4,7,10,12-pentaen-9-yl]acetamido}phenoxy)propoxy]propoxy}acetamido)-3,3-dimethylbutanoyl]-4-hydroxy-N-{[4-(4-methyl-1,3-thiazol-5-yl)phenyl]methyl}pyrrolidine-2-carboxamide]: 96.5% and 0.01 to 0.1 µM.
As to `Cc1ncsc1-c1ccc(CNC(=O)[C@@H]2C[C@@H](O)CN2C(=O)[C@@H](NC(=O)COCCCOc2ccc([C@@H](C)NC(=O)C[C@@H]3N=C(c4ccc(Cl)cc4)c4c(sc(C)c4C)-n4c(C)nnc43)cc2)C(C)(C)C)cc1` [Example 65], the Emax amounted to 95.4% and the half-maximal degradation concentration (DC50) lay in the range of 0.01 to 0.1 µM.
The matching figures for `Cc1ncsc1-c1ccc(CNC(=O)[C@@H]2C[C@@H](O)CC2C(=O)[C@@H](NC(=O)CO[C@H]2CCN(c3ccc([C@@H](C)NC(=O)C[C@@H]4N=C(c5ccc(Cl)cc5)c5c(sc(C)c5C)-n5c(C)nnc54)cc3)C2)C(C)(C)C)cc1` (some centres unmarked) [Example 66]: 89.4% and 0.01 to 0.1 µM.
The matching figures for `Cc1ncsc1-c1ccc(CNC(=O)[C@@H]2C[C@@H](O)CN2C(=O)[C@@H](NC(=O)CCCCCCCCNC(=O)C[C@@H]2N=C(c3ccc(Cl)cc3)c3c(sc(C)c3C)-n3c(C)nnc32)C(C)(C)C)cc1` [Example 68]: 95.4% and 0.01 to 0.1 µM.
The matching figures for `Cc1ncsc1-c1ccc(CNC(=O)[C@@H]2C[C@@H](O)CN2C(=O)[C@@H](NC(=O)COCCc2cccc(CNC(=O)C[C@@H]3N=C(c4ccc(Cl)cc4)c4c(sc(C)c4C)-n4c(C)nnc43)c2)C(C)(C)C)cc1` [Example 69]: 93.4% and 0.01 to 0.1 µM.
As for `Cc1ncsc1-c1ccc(CNC(=O)[C@@H]2C[C@@H](O)CN2C(=O)[C@@H](NC(=O)Cc2cccc(CCCCNC(=O)C[C@@H]3N=C(c4ccc(Cl)cc4)c4c(sc(C)c4C)-n4c(C)nnc43)c2)C(C)(C)C)cc1` [Example 70, (2S,4R)-1-[(2S)-2-{2-[3-(4-{2-[(9S)-7-(4-chlorophenyl)-4,5,13-trimethyl-3-thia-1,8,11,12-tetraazatricyclo[8.3.0.0^2,^6]trideca-2(6),4,7,10,12-pentaen-9-yl]acetamido}butyl)phenyl]acetamido}-3,3-dimethylbutanoyl]-4-hydroxy-N-{[4-(4-methyl-1,3-thiazol-5-yl)phenyl]methyl}pyrrolidine-2-carboxamide], the Emax was determined as 88.8% and the DC50 fell in the range of 0.01 to 0.1 µM.
The matching figures for `Cc1ncsc1-c1ccc([C@H](C)NC(=O)[C@@H]2C[C@H](O)CN2C(=O)[C@@H](NC(=O)COCCCOCCNC(=O)C[C@@H]2N=C(c3ccc(Cl)cc3)c3c(sc(C)c3C)-n3c(C)nnc32)C(C)(C)C)cc1` [Example 71]: 11.2% and over 1 µM.
The matching figures for `Cc1ncsc1-c1ccc([C@H](C)NC(=O)[C@H]2C[C@H](O)CN2C(=O)[C@@H](NC(=O)COCCCOCCNC(=O)C[C@@H]2N=C(c3ccc(Cl)cc3)c3c(sc(C)c3C)-n3c(C)nnc32)C(C)(C)C)cc1` [Example 72, (2R, 4S)-1-[(2S)-2-{2-[3-(2-{2-[(9S)-7-(4-chlorophenyl)-4,5,13-trimethyl-3-thia-1,8,11,12-tetraazatricyclo[8.3.0.0^2,^6]trideca-2(6),4,7,10,12-pentaen-9-yl]acetamido}ethoxy)propoxy]acetamido}-3,3-dimethylbutanoyl]-4-hydroxy-N-[(1S)-1-[4-(4-methyl-1,3-thiazol-5-yl)phenyl]ethyl]pyrrolidine-2-carboxamide]: 10.2% and over 1 µM.
For `Cc1ncsc1-c1ccc(CNC(=O)[C@@H]2C[C@H](O)CN2C(=O)[C@@H](NC(=O)COCCCOCCNC(=O)C[C@@H]2N=C(c3ccc(Cl)cc3)c3c(sc(C)c3C)-n3c(C)nnc32)C(C)(C)C)cc1` [Example 73], the Emax is 21.4% and the DC50 was over 1 µM.
As to `Cc1ncoc1-c1ccc(CNC(=O)[C@@H]2C[C@@H](O)CN2C(=O)[C@@H](NC(=O)COCCCOCCNC(=O)C[C@@H]2N=C(c3ccc(Cl)cc3)c3c(sc(C)c3C)-n3c(C)nnc32)C(C)(C)C)cc1` [Example 74], the Emax worked out at 97% and the DC50 was 0.01 to 0.1 µM.
On to `Cc1sc2c(c1C)C(c1ccc(Cl)cc1)=N[C@@H](CC(=O)NCCOCCCOCC(=O)N[C@H](C(=O)N1C[C@H](O)C[C@H]1C(=O)NCc1ccc(C#N)cc1)C(C)(C)C)c1nnc(C)n1-2` [Example 75], for which the Emax worked out at 58.5% and the DC50 was 0.1 to 1 µM.
The matching figures for `Cc1sc2c(c1C)C(c1ccc(Cl)cc1)=N[C@@H](CC(=O)NCCOCCCOCC(=O)N[C@H](C(=O)N1C[C@H](O)C[C@H]1C(=O)NCc1ccc(Cl)cc1)C(C)(C)C)c1nnc(C)n1-2` [Example 76]: 58.6% and 0.1 to 1 µM.
The matching figures for `Cc1ncsc1-c1ccc(CNC(=O)[C@@H]2C[C@@H](O)CN2C(=O)[C@@H](NC(=O)COCCn2cc(-c3ccc([C@@H](C)NC(=O)C[C@@H]4N=C(c5ccc(Cl)cc5)c5c(sc(C)c5C)-n5c(C)nnc54)cc3)cn2)C(C)(C)C)cc1` [Example 78]: 86.7% and 0.1 to 1 µM.
The matching figures for `Cc1ncsc1-c1ccc(CNC(=O)[C@@H]2C[C@@H](O)CN2C(=O)[C@@H](NC(=O)COCCN2CCC(NC(=O)C[C@@H]3N=C(c4ccc(Cl)cc4)c4c(sc(C)c4C)-n4c(C)nnc43)CC2)C(C)(C)C)cc1` [Example 79]: 50.8% and over 1 µM.
For the compound `Cc1ncsc1-c1ccc(CNC(=O)[C@@H]2C[C@@H](O)CN2C(=O)[C@@H](NC(=O)Cc2ccc(OCCNC(=O)C[C@@H]3N=C(c4ccc(Cl)cc4)c4c(sc(C)c4C)-n4c(C)nnc43)cc2)C(C)(C)C)cc1` [Example 80, (2S,4R)-1-[(2S)-2-{2-[4-(2-{2-[(9S)-7-(4-chlorophenyl)-4,5,13-trimethyl-3-thia-1,8,11,12-tetraazatricyclo[8.3.0.0^2,^6]trideca-2(6),4,7,10,12-pentaen-9-yl]acetamido}ethoxy)phenyl]acetamido}-3,3-dimethylbutanoyl]-4-hydroxy-N-{[4-(4-methyl-1,3-thiazol-5-yl)phenyl]methyl}pyrrolidine-2-carboxamide], the Emax was determined as 97.5% and the DC50 was 0.01 to 0.1 µM.
